Here are results for 29 compounds from patent US9957271B2, “Substituted bicyclic aza-heterocycles and analogues as sirtuin modulators” (GlaxoSmithKline, LLC, priority 2012, dated 2018).

Test [1] concerns the target T1, SIRT1 (Homo sapiens, UniProt Q96EB6).
T1 sequence (Q96EB6 1-747): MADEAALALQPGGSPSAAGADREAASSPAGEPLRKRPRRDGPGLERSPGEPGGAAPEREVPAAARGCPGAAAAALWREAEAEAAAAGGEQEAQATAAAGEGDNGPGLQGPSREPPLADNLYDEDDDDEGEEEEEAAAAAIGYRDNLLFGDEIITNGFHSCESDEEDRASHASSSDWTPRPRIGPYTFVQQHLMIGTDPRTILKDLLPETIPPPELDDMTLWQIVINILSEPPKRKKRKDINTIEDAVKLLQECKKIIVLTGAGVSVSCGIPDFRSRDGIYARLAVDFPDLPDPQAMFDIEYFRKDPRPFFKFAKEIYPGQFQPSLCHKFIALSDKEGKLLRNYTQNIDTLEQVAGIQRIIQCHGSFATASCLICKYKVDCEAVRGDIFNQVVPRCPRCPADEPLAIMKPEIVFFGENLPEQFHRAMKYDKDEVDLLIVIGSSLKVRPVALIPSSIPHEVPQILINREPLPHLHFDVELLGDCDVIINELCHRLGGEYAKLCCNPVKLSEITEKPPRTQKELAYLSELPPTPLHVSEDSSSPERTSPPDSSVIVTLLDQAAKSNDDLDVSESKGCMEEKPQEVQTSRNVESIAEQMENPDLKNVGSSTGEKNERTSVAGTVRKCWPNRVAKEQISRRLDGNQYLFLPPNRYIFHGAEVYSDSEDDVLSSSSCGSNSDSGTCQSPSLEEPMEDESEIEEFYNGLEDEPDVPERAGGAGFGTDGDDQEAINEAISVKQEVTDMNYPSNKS
The test is described as follows: TAMRA based mass spectrometry assay of SIRT1 activity. Conditions: TAMRA peptide substrate; for TAMRA EC1.5 (μM): concentration of test compound giving 150% activation of SIRT1; for Emax: percent maximum fold activation of SIRT1, read-out: TAMRA % Fold Act. In kind it is biochemical. In a few lines: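 Deacetylation of a biotinylated, TAMRA-tagged p53-based peptide (0.5 μM) by 10 nM His-tagged SIRT1 with 120 μM βNAD+, 25 °C for 25 min, pH 8 Tris-acetate buffer, across a compound concentration range. Quenched by formic acid and read by mass spec as product peptide or OAADPR; activity relative to DMSO reactions, nicotinamide defining maximal inhibition.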

Test [2] addresses T1, SIRT1. The test is described as follows: Trp mass spectrometry assay of SIRT1 activity. Type of test: biochemical. The conditions noted are these: Trp peptide substrate; for Trp EC1.5 (μM): concentration of test compound giving 150% activation of SIRT1; for Emax: percent maximum fold activation of SIRT1, read-out: Trp % Fold Act. The procedure, abridged:
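Activation readout: EC1.5 (concentration raising activity 50% over control) and percent maximum activation, from mass-spec quantitation of OAADPR or deacetylated Trp peptide. Reaction: 0.5 μM acetylated Trp peptide, 120 μM βNAD+, 10 nM bacterially expressed N-His SIRT1, pH 7.5 HEPES buffer with […], 25 min at 25° C.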

Consider `O=C(Nc1nc(CN2CCOCC2)cs1)c1cnc2ccc(-c3ccc(F)c(F)c3)nn12` [Compound 44], for which, at SIRT1 [1], the “TAMRA EC1.5 (μM)” value is recorded as “B (EC1.5 1-25 μM)” and the Emax is under 350%. Besides, on SIRT1 [2], the “Trp EC1.5 (μM)” value is given as “B (EC1.5 1-25 μM)” and the Emax was under 350%.
Regarding `O=C(Nc1cccc(CN2CCOCC2)n1)c1cnc2ccc(-c3cccc(F)c3F)nn12` [Compound 47], at SIRT1 [1], the “TAMRA EC1.5 (μM)” value was “A (EC1.5<1 μM)” and the Emax is at least 350%. Moreover, on SIRT1 [2], the “Trp EC1.5 (μM)” value is recorded as “C (EC1.5>25 μM)” and the Emax was under 350%.
As for `O=C(Nc1ccnc(N2CCC2)c1)c1cnc2ccc(-c3ccccc3C(F)(F)F)nn12` [Compound 50], at SIRT1 [1], the “TAMRA EC1.5 (μM)” value is on record as “A (EC1.5<1 μM)” and the Emax is at least 350%. Moreover, at SIRT1 [2], the “Trp EC1.5 (μM)” value was “A (EC1.5<1 μM)” and the Emax is at least 350%.
`O=C(Nc1cccc(N2CCC2)n1)c1cnc2ccc(-c3ccccc3C(F)F)nn12` [Compound 51]: at SIRT1 [1], the “TAMRA EC1.5 (μM)” value is recorded as “A (EC1.5<1 μM)” and the Emax was at least 350%. Also, on SIRT1 [2], the “Trp EC1.5 (μM)” value is “B (EC1.5 1-25 μM)” and the Emax was at least 350%.
As to `Cc1noc(C)c1-c1ccc2ncc(C(=O)Nc3cccc(N4CCOCC4)n3)n2n1` [Compound 53], on SIRT1 [1], the “TAMRA EC1.5 (μM)” value is listed as “B (EC1.5 1-25 μM)” and the Emax was under 350%. Also, on SIRT1 [2], the “Trp EC1.5 (μM)” value is “B (EC1.5 1-25 μM)” and the Emax is under 350%.
As to `Cn1cc(-c2ccc3ncc(C(=O)Nc4cccc(N5CCOCC5)n4)n3n2)cn1` [Compound 56], at SIRT1 [1], the “TAMRA EC1.5 (μM)” value is “B (EC1.5 1-25 μM)” and the Emax is under 350%. For the same compound, on SIRT1 [2], the “Trp EC1.5 (μM)” value is given as “B (EC1.5 1-25 μM)” and the Emax was under 350%.
With `Cc1ncccc1-c1ccc2ncc(C(=O)Nc3ccnc(N4CCCC4)c3)n2n1` [Compound 59], at SIRT1 [1], the “TAMRA EC1.5 (μM)” value is listed as “B (EC1.5 1-25 μM)” and the Emax was under 350%. In addition, at SIRT1 [2], the “Trp EC1.5 (μM)” value is listed as “C (EC1.5>25 μM)” and the Emax is under 350%.
Consider `O=C(Nc1ccnc(N2CCC2)c1)c1cnc2ccc(-c3cncc(C(F)F)c3)nn12` [Compound 62], for which, on SIRT1 [1], the “TAMRA EC1.5 (μM)” value is “B (EC1.5 1-25 μM)” and the Emax is under 350%. In addition, on SIRT1 [2], the “Trp EC1.5 (μM)” value is reported as “C (EC1.5>25 μM)” and the Emax is under 350%.
For the compound `O=C(Nc1ccnc(N2CCOCC2)c1)c1nnc2ccc(-c3ccccc3C(F)F)nn12` [Compound 68], at SIRT1 [1], the “TAMRA EC1.5 (μM)” value is “B (EC1.5 1-25 μM)” and the Emax is under 350%. Also, on SIRT1 [2], the “Trp EC1.5 (μM)” value is “B (EC1.5 1-25 μM)” and the Emax is under 350%.
`Cc1nc2ccc(-c3ccccc3C(F)(F)F)nn2c1C(=O)Nc1cccc(N2CCC2)n1` [Compound 69]: at SIRT1 [1], the “TAMRA EC1.5 (μM)” value is given as “A (EC1.5<1 μM)” and the Emax is at least 350%. Further, at SIRT1 [2], the “Trp EC1.5 (μM)” value is “B (EC1.5 1-25 μM)” and the Emax is at least 350%.
Regarding `Cc1nc2ccc(-c3ccccc3C(F)(F)F)nn2c1C(=O)Nc1cccc(N2CCOCC2)n1` [Compound 71], on SIRT1 [1], the “TAMRA EC1.5 (μM)” value is reported as “A (EC1.5<1 μM)” and the Emax is at least 350%. At SIRT1 [2], the “Trp EC1.5 (μM)” value is given as “A (EC1.5<1 μM)” and the Emax is at least 350%.
Regarding `O=C(Nc1ccnc(OCC(O)CO)n1)c1cnc2ccc(-c3ccccc3C(F)(F)F)nn12` (centres unmarked) [Compound 74], on SIRT1 [1], the “TAMRA EC1.5 (μM)” value is “A (EC1.5<1 μM)” and the Emax was at least 350%. In addition, at SIRT1 [2], the “Trp EC1.5 (μM)” value is recorded as “A (EC1.5<1 μM)” and the Emax was at least 350%.
For the compound `O=C(Nc1ccncc1)c1cnc2ccc(-c3ccccc3C(F)(F)F)nn12` [Compound 77], on SIRT1 [1], the “TAMRA EC1.5 (μM)” value is “B (EC1.5 1-25 μM)” and the Emax is at least 350%. At SIRT1 [2], the “Trp EC1.5 (μM)” value is listed as “B (EC1.5 1-25 μM)” and the Emax was under 350%.
Turning to `Cc1cccc(NC(=O)c2cnc3ccc(-c4ccccc4C(F)(F)F)nn23)n1` [Compound 78], at SIRT1 [1], the “TAMRA EC1.5 (μM)” value was “A (EC1.5<1 μM)” and the Emax was at least 350%. Also, on SIRT1 [2], the “Trp EC1.5 (μM)” value is on record as “A (EC1.5<1 μM)” and the Emax is at least 350%.
Consider `O=C(Nc1ccncn1)c1cnc2ccc(-c3ccccc3C(F)(F)F)nn12` [Compound 80], for which, on SIRT1 [1], the “TAMRA EC1.5 (μM)” value is on record as “B (EC1.5 1-25 μM)” and the Emax is at least 350%. At SIRT1 [2], the “Trp EC1.5 (μM)” value is recorded as “C (EC1.5>25 μM)” and the Emax is under 350%.
On to `O=C(Nc1cnc2ccc(-c3ccccc3C(F)(F)F)nn12)c1cccc(OCC(O)CO)n1` (centres unmarked) [Compound 83], for which, at SIRT1 [1], the “TAMRA EC1.5 (μM)” value was “A (EC1.5<1 μM)” and the Emax is at least 350%. Moreover, at SIRT1 [2], the “Trp EC1.5 (μM)” value is reported as “A (EC1.5<1 μM)” and the Emax was at least 350%.
With `O=C(Nc1ncccn1)c1cnc2ccc(-c3ccccc3C(F)(F)F)nn12` [Compound 84], at SIRT1 [1], the “TAMRA EC1.5 (μM)” value was “B (EC1.5 1-25 μM)” and the Emax was at least 350%. Besides, at SIRT1 [2], the “Trp EC1.5 (μM)” value was “B (EC1.5 1-25 μM)” and the Emax is at least 350%.
With `O=C(Nc1cnc2ccc(-c3ccccc3C(F)(F)F)nn12)c1cccnc1` [Compound 86], at SIRT1 [1], the “TAMRA EC1.5 (μM)” value is on record as “C (EC1.5>25 μM)” and the Emax was under 350%. For the same compound, at SIRT1 [2], the “Trp EC1.5 (μM)” value is on record as “C (EC1.5>25 μM)” and the Emax is under 350%.
Take `Cn1cnc(C(=O)Nc2cnc3ccc(-c4ccccc4C(F)(F)F)nn23)c1` [Compound 92]: on SIRT1 [1], the “TAMRA EC1.5 (μM)” value was “B (EC1.5 1-25 μM)” and the Emax is at least 350%. Further, at SIRT1 [2], the “Trp EC1.5 (μM)” value is reported as “C (EC1.5>25 μM)” and the Emax is under 350%.
The like results for `Cn1nccc1C(=O)Nc1cnc2ccc(-c3ccccc3C(F)(F)F)nn12` [Compound 93] were, in that order, “C (EC1.5>25 μM)”, under 350%, “C (EC1.5>25 μM)” and under 350%.
As for `O=C(Nc1cccc(N2CCOCC2)n1)c1cnc2ccc(-c3ccccc3Cl)nn12` [Compound 95], on SIRT1 [1], the “TAMRA EC1.5 (μM)” value was “A (EC1.5<1 μM)” and the Emax is at least 350%. For the same compound, at SIRT1 [2], the “Trp EC1.5 (μM)” value was “A (EC1.5<1 μM)” and the Emax was under 350%.
Take `Cc1ccc(NC(=O)c2cnc3ccc(-c4ccccc4C(F)(F)F)nn23)cn1` [Compound 98]: on SIRT1 [1], the “TAMRA EC1.5 (μM)” value is recorded as “B (EC1.5 1-25 μM)” and the Emax was at least 350%. Further, at SIRT1 [2], the “Trp EC1.5 (μM)” value is listed as “B (EC1.5 1-25 μM)” and the Emax was at least 350%.
Consider `Cc1cc(C)nc(NC(=O)c2cnc3ccc(-c4ccccc4C(F)(F)F)nn23)c1` [Compound 101], for which, at SIRT1 [1], the “TAMRA EC1.5 (μM)” value is reported as “A (EC1.5<1 μM)” and the Emax was at least 350%. On SIRT1 [2], the “Trp EC1.5 (μM)” value is reported as “B (EC1.5 1-25 μM)” and the Emax is at least 350%.
As to `Cc1cc(NC(=O)c2cnc3ccc(-c4ccccc4C(F)(F)F)nn23)ccn1` [Compound 102], on SIRT1 [1], the “TAMRA EC1.5 (μM)” value is given as “A (EC1.5<1 μM)” and the Emax was at least 350%. For the same compound, at SIRT1 [2], the “Trp EC1.5 (μM)” value is reported as “B (EC1.5 1-25 μM)” and the Emax was at least 350%.
As for `CN(C)c1cccc(NC(=O)c2cnc3ccc(-c4ccccc4C(F)(F)F)nn23)n1` [Compound 104], on SIRT1 [1], the “TAMRA EC1.5 (μM)” value is given as “A (EC1.5<1 μM)” and the Emax is at least 350%. Moreover, at SIRT1 [2], the “Trp EC1.5 (μM)” value was “B (EC1.5 1-25 μM)” and the Emax was under 350%.
The like results for `O=C(Nc1cncc(F)c1)c1cnc2ccc(-c3ccccc3C(F)(F)F)nn12` [Compound 107] were, in that order, “B (EC1.5 1-25 μM)”, at least 350%, “B (EC1.5 1-25 μM)” and under 350%.
The matching figures for `O=C(Nc1ccc(F)cn1)c1cnc2ccc(-c3ccccc3C(F)(F)F)nn12` [Compound 110]: “A (EC1.5<1 μM)”, at least 350%, “B (EC1.5 1-25 μM)” and under 350%.
The like results for `Cn1ccc(NC(=O)c2cnc3ccc(-c4ccccc4C(F)(F)F)nn23)n1` [Compound 112] were, in that order, “B (EC1.5 1-25 μM)”, at least 350%, “B (EC1.5 1-25 μM)” and under 350%.
Consider `Cc1ncccc1NC(=O)c1cnc2ccc(-c3ccccc3C(F)(F)F)nn12` [Compound 113], for which, at SIRT1 [1], the “TAMRA EC1.5 (μM)” value was “B (EC1.5 1-25 μM)” and the Emax is under 350%. In addition, on SIRT1 [2], the “Trp EC1.5 (μM)” value is recorded as “B (EC1.5 1-25 μM)” and the Emax was under 350%.
